Results taken from US20250214947A1, “3,4-DIHYDROQUINOXALINE-2-CARBOXIMIDE DERIVATIVE COMPOUND AND PHARMACEUTICAL COMPOSITION COMPRISING SAME FOR PREVENTING OR TREATING CANCER DISEASE” (Cureverse Incorporated, priority 2022, published 2025).

Experiments:
Liver cancer cells Huh-7 = experiment: Liver cancer cell growth inhibition, CellTiter-Glo Luminescent Cell Viability Assay; format: cell-based; conditions: various concentrations; day 1; FIG. 6
Protocol: In addition, an analysis of liver cancer growth inhibitory activity was performed. Liver cancer cells Huh-7 cells were dispensed in a 96-well plate at 1×10^4 cells/ml, and after 20 hours, PCI34051, Example 27, and Example 35 were added at various concentrations, and cultured for 24 and 48 hours at 37° C. in a 5% CO2 atmosphere. After culturing, 100 l CellTiter-Glo Luminescent Cell Viability Assay reagent was added and the luminescence signal was measured after 0.5-1 hour. The luminescence signal was measured using IVIS [PerkinElmer, (Waltham, USA)].

HDAC10 = biological target: T1, HDAC10 (Homo sapiens, UniProt Q969S8); experiment: Selective inhibitory effect, HDAC Fluorogenic assay kit, HDAC10; conditions: read-out: HDAC10 enzyme activity (%)
T1 sequence (Q969S8 1-669): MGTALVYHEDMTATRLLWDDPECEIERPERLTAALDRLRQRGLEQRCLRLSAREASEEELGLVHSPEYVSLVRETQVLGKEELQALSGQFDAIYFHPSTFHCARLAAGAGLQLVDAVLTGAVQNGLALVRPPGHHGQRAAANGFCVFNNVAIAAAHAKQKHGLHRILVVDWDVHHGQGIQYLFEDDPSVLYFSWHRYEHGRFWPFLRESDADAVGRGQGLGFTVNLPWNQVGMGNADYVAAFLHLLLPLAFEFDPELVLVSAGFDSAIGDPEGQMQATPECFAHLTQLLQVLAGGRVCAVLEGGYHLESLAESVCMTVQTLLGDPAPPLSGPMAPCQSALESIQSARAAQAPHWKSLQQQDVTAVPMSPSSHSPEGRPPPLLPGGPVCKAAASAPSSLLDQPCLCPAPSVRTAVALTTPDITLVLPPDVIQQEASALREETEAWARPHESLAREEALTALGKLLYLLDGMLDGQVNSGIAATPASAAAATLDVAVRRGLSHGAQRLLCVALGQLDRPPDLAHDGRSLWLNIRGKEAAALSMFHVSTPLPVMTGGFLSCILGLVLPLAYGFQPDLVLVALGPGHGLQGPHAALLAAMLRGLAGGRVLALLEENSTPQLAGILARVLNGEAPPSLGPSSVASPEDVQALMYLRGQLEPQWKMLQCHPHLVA
Protocol: For analysis, HDAC substrate 3 was diluted in buffer to a concentration of 200 μM and used in HDAC 1, 2, 3, 6, and 10 assays, HDAC substrate 2A was diluted in buffer to a concentration of 200 μM and used in HDAC 4, 7, 9, and 11 assays, HDAC substrate 2A was diluted in buffer to a concentration of 20 μM and used in HDAC 8 assays. For the HDAC 11 assay, a dedicated buffer included in the kit was used separately, and the same buffer was used for the remaining assays. The compound of the Example was diluted to 1 mM (1% DMSO concentration) using DMSO to obtain a final concentration of 10 μM, and prepared by diluting 1/10 with assay buffer. In a 96-well black round-bottom plate, 5 μL of the diluted compound of the Example, 5 μL of the diluted HDAC substrate, 5 μL of BSA (1 mg/ml), 5 μL of the HDAC enzyme diluted to the appropriate concentration, and 30 μL of assay buffer were added, and the enzyme reaction was performed at 37° C. for 30 minutes. […] Afterwards, 50 μL of 2×HDAC developer was added to each well. After reacting for 15 minutes at room temperature, the fluorescence values at excitation wavelengths of 350-380 nm and emission wavelengths of 440-460 nm were measured using a microplate reader (Synergy Neo).

[1] = test system: PC-3 prostate cancer cells; experiment: Prostate cancer cell growth inhibition, CCK-8 assay; format: cell-based, human; conditions: various concentrations; 24 hours and 48 hours; FIG. 1
Protocol: PC-3, a human-derived prostate cancer cell line, was cultured with RPMI1640 (10% fetal bovine serum, 1% Penicillin Streptomycin) culture medium at 37° C., 5% CO2 condition. All cells in the experiment were subcultured when they reached a confluency of approximately 80% to 90%, and only cells that had not passed 20 passages were used.
After culturing, 10 L CCK-8 reagent was added and the absorbance was measured after 1 hour. The absorbance was measured at 450 nm using a microplate reader [BMG Labtech (Offenburg, Germany)].

HDAC8 = biological target: T2, HDAC8 (Homo sapiens, UniProt Q9BY41); experiment: HDAC8 inhibitory activity analysis (in vitro), RFU analysis, HDAC Fluorogenic assay kit; format: biochemical; conditions: 10 μM; compared with TSA or SAHA
T2 construct: purchased BPS bioscience
T2 sequence (Q9BY41 1-377): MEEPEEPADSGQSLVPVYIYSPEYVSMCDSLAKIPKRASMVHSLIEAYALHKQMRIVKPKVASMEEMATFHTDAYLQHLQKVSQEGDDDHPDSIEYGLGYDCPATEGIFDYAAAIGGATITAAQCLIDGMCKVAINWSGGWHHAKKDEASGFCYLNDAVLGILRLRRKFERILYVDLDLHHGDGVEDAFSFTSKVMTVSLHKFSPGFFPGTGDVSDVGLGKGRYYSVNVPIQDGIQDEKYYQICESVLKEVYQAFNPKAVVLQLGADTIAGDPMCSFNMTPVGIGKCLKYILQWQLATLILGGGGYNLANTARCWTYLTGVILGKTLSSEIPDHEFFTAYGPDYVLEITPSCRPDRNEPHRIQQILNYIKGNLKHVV
Protocol: The compound of the Example was diluted to 1 mM (1% DMSO concentration) using DMSO to obtain a final concentration of 10 μM, and prepared by diluting 1/10 with assay buffer. In a 96-well black round-bottom plate, 5 μL of the diluted compound of the Example, 5 μL of the diluted HDAC substrate 2A, 5 μL of BSA (1 mg/mL), 5 µL of the HDAC8 enzyme diluted to an appropriate concentration, and 30 μL of assay buffer were added, and the enzyme reaction was performed at 37° C. for 30 minutes. […] Afterwards, 50 μL of 2×HDAC developer was added to each well. After reacting for 15 minutes at room temperature, the fluorescence values at excitation wavelengths of 350-380 nm and emission wavelengths of 440-460 nm were measured using a microplate reader (Synergy Neo).

[2] = Body weight of mice during drug administration, prostate cancer model; format: in vivo, nude mice; conditions: 50 mg/kg orally once a day; drug administration period; FIG. 5
Protocol: A prostate cancer model was established by subcutaneously transplanting PC-3 cell lines into nude mice, and the mice were divided into two groups (group 1: vehicle administration group (10% DSMO, 30% PEG400, 60% DW), group 2: 50 mg/kg Example 27 compound administration group). The drug was administered orally once a day for 12 times. To evaluate the therapeutic efficacy, tumors were […] before drug administration and on days 3, 6, 8, 10, 12, and 14 after drug administration, and tumor volumes were measured. Tumor volume (mm^3) was calculated as follows (tumor volume (mm^3)=(A×B^2)/2, where A=tumor long axis, B=tumor short axis), and the results are shown in FIG. 2.

[3] = Body weight of mice during drug administration, liver cancer model; format: in vivo, nude mice; conditions: 50 mg/kg once a day; drug administration period; FIG. 7D
Protocol: In addition, a liver cancer model was established by subcutaneously transplanting Huh-7 cell lines into nude mice. After establishing the liver cancer model, the mice were divided into two groups (group 1: vehicle administration group, group 2: 50 mg/kg Example 27 compound administration group). The drug was administered once a day for 12 times. To evaluate therapeutic efficacy, tumor volume was measured before drug administration and on days 4, 7, 10, 13, and 15 after drug administration. Tumor volume (mm^3) was calculated as follows (tumor volume (mm^3)=(A×B^2)/2, where A=tumor long axis, B=tumor short axis). Body weight was measured before administration and on days 4, 7, 10, 13, and 15 after drug administration during the drug administration period. Tumor was excised on day 15 after drug treatment and body weight was measured.

SMILES: Cc1cc2nc(C(=O)NCCc3c[nH]c4ccc(O)cc34)c(=O)n(C[C@H](O)[C@H](O)[C@H](O)CO)c2cc1C [Example 27, N-(2-(5-hydroxy-1H-indol-3-yl)ethyl)-6,7-dimethyl-3-oxo-4-((2S,3S,4R)-2,3,4,5-tetrahydroxypentyl)-3,4-dihydroquinoxaline-2-carboxamide]
- Huh-7 cell viability (in words) (Liver cancer cells Huh-7): concentration-dependent inhibition of cancer cell viability
- remaining activity at 10 µM (HDAC10): 87.2%
- PC-3 cancer cell viability inhibition rate compared with PCI-34051 [1]: superior to that of PCI-34051
- PC-3 cell viability (in words) [1]: effectively reduced the viability of prostate cancer cells in a concentration- and time-dependent manner
- inhibitory activity against HDAC8 (in words) (HDAC8): inhibitory activity similar to TSA or SAHA
- body weight of the mice (in words) [2]: no rapid weight loss was confirmed
- body weight (in words) [3]: No rapid weight loss was observed
